The values that follow come from patent US9637520B2, “Template-fixed peptidomimetics with CXCR7 modulating activity” (POLYPHOR AG, priority 2010, dated 2017).

Starred links: 1 amine or outer side, 2 acyl side, 3 side chain; linkers in the order of their positions; H or OH if unused. Non-standard residues stand in square brackets, D forms with d. Residues, ends and D or L forms follow the SMILES beside them. *: point of attachment. Arg(Nω,Nω'-propylene) = N[C@@H](CCCNC1=NCCCN1)C(=O)O; dPro(cis-4-NH2) = N[C@H]1CN[C@@H](C(=O)O)C1; X4 = Cn1ccnc1CNCCC[C@H](N[*:1])C(=O)[*:2]; Oic = O=C(O)[C@@H]1C[C@@H]2CCCC[C@@H]2N1; cisHyp = O=C(O)[C@@H]1C[C@H](O)CN1; Tic = O=C(O)[C@@H]1Cc2ccccc2CN1; dHyp = O=C(O)[C@H]1C[C@H](O)CN1; aThr = C[C@H](O)[C@H](N)C(=O)O; Agb = N=C(N)NCC[C@H](N)C(=O)O; Bn = c1ccc(C*)cc1

The test deals with T1, CXCR7 (Homo sapiens, UniProt P25106).
T1 construct: host or cells: CHO (PathHunter CHO-CXCR7 β-arrestin cells)
T1 sequence (P25106 whole entry): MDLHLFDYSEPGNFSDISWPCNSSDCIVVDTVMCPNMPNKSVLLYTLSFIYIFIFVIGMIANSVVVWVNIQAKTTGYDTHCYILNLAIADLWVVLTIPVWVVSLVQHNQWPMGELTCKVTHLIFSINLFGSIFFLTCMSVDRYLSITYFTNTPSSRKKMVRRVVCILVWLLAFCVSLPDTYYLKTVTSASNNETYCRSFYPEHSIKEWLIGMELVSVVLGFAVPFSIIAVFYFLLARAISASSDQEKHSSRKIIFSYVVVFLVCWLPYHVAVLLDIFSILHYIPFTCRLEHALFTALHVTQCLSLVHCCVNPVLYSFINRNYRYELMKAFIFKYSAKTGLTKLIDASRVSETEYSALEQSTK
The test can be described thus: CXCR7 β-arrestin recruitment assay (PathHunter CHO-CXCR7, DiscoverX), agonistic assay. The class given is cell-based. The conditions noted are these: agonistic assay; CHO CXCR7 β-arrestin cells; 90 min at 37° C.; chemiluminescence; read-out: β-Arrestin EC50. The method, boiled down: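 CHO cells co-expressing CXCR7 and β-arrestin (PathHunter), seeded overnight, then exposed to serially diluted compounds at 1% DMSO for 90 min at 37 °C; SDF-1 served as positive agonist control. Enzyme-fragment complementation detection developed 90 min at room temperature, read by chemiluminescence.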
(Recruitment of arrestin is a read-out of receptor activation apart from second messengers.)
In general, EC50 refers to the concentration at which the effect is half-maximal. In the case of `CC[C@H](C)[C@@H]1NC(=O)[C@H]([C@@H](C)O)NC(=O)[C@H]2CCCN2C(=O)[C@H](Cc2c[nH]c3ccccc23)NC(=O)[C@H](CCNC(=N)N)NC(=O)[C@@H](CCCNC(=N)N)NC1=O` [Ex. 24, cyclo(-Ile-^DArg-Agb-Trp-^DPro-Thr-)] (cyclo([Agb]W[dP]TI[dR])), the half-maximal effective concentration (EC50) stood at 22.3 ± 29.3 nM.
`N=C(N)NCCC[C@@H]1NC(=O)[C@H](Cc2c[nH]c3ccccc23)NC(=O)[C@@H](Cc2ccccc2)NC(=O)[C@H](Cc2c[nH]c3ccccc23)NC(=O)[C@@H]2C[C@H](OCc3ccccc3)CN2C(=O)[C@H]2C[C@H](O)CN2C1=O` [compound 49, cyclo(-Trp-^DPhe-Trp-Arg-^DPro((4S)OH)-(4S)-Hyp(Bn)-)] (cyclo(R[dHyp][cisHyp](Bn)W[dF]W)): the EC50 is 7.6 ± 10.1 nM.
As to `CC(C)[C@@H]1NC(=O)[C@H]([C@@H](C)O)NC(=O)[C@H]2CCCN2C(=O)[C@H](Cc2c[nH]c3ccccc23)NC(=O)[C@H](CCCNC(=N)N)NC(=O)[C@@H](CCCNC(=N)N)NC1=O` [compound 57, cyclo(-Val-^DArg-Arg-Trp-^DPro-Thr-)] (cyclo(RW[dP]TV[dR])), the EC50 worked out at 271 ± 0.2 nM.
With `Cn1ccnc1CNCCC[C@@H]1NC(=O)[C@H](Cc2c[nH]c3ccccc23)NC(=O)[C@@H](Cc2ccccc2)NC(=O)[C@H](Cc2c[nH]c3ccccc23)NC(=O)[C@@H]2Cc3ccccc3CN2C(=O)[C@H]2C[C@@H](N)CN2C1=O` [compound 78, cyclo(-Trp-^DPhe-Trp-Orn(Ar7)-^DPro((4R)NH2)-Tic-)] (cyclo([Tic]W[dF]W[X4][dPro(cis-4-NH2)])), the EC50 turned out to be 145 ± 10.9 nM.
For `CC[C@H](C)[C@@H]1NC(=O)[C@H]([C@@H](C)O)NC(=O)[C@H]2CCCN2C(=O)[C@H]([C@@H](C)CC)NC(=O)[C@H](CCCNC(=N)N)NC(=O)[C@@H](CCCNC(=N)N)NC1=O` [Ex. 1, cyclo(-Ile-^DArg-Arg-Ile-^DPro-Thr-)] (cyclo(I[dP]TI[dR]R)), the EC50 came to 79.7 ± 99.7 nM.
As for `CC[C@H](C)[C@@H]1NC(=O)[C@H]([C@H](C)O)NC(=O)[C@H]2CCCN2C(=O)[C@H](Cc2c[nH]c3ccccc23)NC(=O)[C@H](CCCNC(=N)N)NC(=O)[C@@H](CCCNC(=N)N)NC1=O` [compound 9, cyclo(-Ile-^DArg-Arg-Trp-^DPro-alloThr-)] (cyclo(I[dR]RW[dP][aThr])), the EC50 was 292 ± 101 nM.
As for `CC[C@H](C)[C@@H]1NC(=O)[C@H]([C@@H](C)O)NC(=O)[C@H]2CCCN2C(=O)[C@H](CCCNC(=N)N)NC(=O)[C@H](Cc2c[nH]c3ccccc23)NC(=O)[C@@H](CCCNC(=N)N)NC1=O` [Ex. 17, cyclo(-Ile-^DArg-Trp-Arg-^DPro-Thr-)] (cyclo(I[dR]WR[dP]T)), the half-maximal effective concentration (EC50) came to 62.5 ± 1.8 nM.
Under `C[C@@H](O)[C@@H]1NC(=O)[C@H]2CCCN2C(=O)[C@H](Cc2c[nH]c3ccccc23)NC(=O)[C@H](CCCNC(=N)N)NC(=O)[C@@H](CCCNC(=N)N)NC(=O)[C@H](Cc2c[nH]c3ccccc23)NC1=O` [Ex. 20, cyclo(-Trp-^DArg-Arg-Trp-^DPro-Thr-)] (cyclo(RW[dP]TW[dR])) stands 538 ± 105 nM; under `N=C(N)NCCC[C@@H]1NC(=O)[C@H](Cc2c[nH]c3ccccc23)NC(=O)[C@@H](Cc2ccccc2)NC(=O)[C@H](Cc2c[nH]c3ccccc23)NC(=O)[C@@H]2C[C@@H]3CCCC[C@@H]3N2C(=O)[C@H]2C[C@@H](N)CN2C1=O` [Ex. 41, cyclo(-Trp-^DPhe-Trp-Arg-^DPro((4R)NH2)-Oic-)] (cyclo([Oic]W[dF]WR[dPro(cis-4-NH2)])), 20.9 ± 33.7 nM.
On to `N=C(N)NCCC[C@@H]1NC(=O)[C@H](Cc2c[nH]c3ccccc23)NC(=O)[C@@H](Cc2ccccc2)NC(=O)[C@H](CCCNC2=NCCCN2)NC(=O)[C@@H]2Cc3ccccc3CN2C(=O)[C@H]2C[C@@H](N)CN2C1=O` [compound 77, cyclo(-Orn(A56)-^DPhe-Trp-Arg-^DPro((4R)NH2)-Tic-)] (cyclo(R[dPro(cis-4-NH2)][Tic][Arg(Nω,Nω'-propylene)][dF]W)), for which the EC50 is 181 ± 62.9 nM.
In the case of `CC[C@H](C)[C@@H]1NC(=O)[C@H](CO)NC(=O)[C@H]2CCCN2C(=O)[C@H](Cc2c[nH]c3ccccc23)NC(=O)[C@H](CCCNC(=N)N)NC(=O)[C@@H](CCCNC(=N)N)NC1=O` [Ex. 22, cyclo(-Ile-^DArg-Arg-Trp-^DPro-Ser-)] (cyclo(I[dR]RW[dP]S)), the half-maximal effective concentration (EC50) was 12.8 ± 3.5 nM.
Consider `CC[C@H](C)[C@@H]1NC(=O)[C@H]([C@@H](C)O)NC(=O)[C@H]2CCCN2C(=O)[C@H](Cc2c[nH]c3ccccc23)NC(=O)[C@H](CCCNC(=N)N)NC(=O)[C@@H](Cc2c[nH]cn2)NC1=O` [compound 12, cyclo(-Ile-^DHis-Arg-Trp-^DPro-Thr-)] (cyclo(I[dH]RW[dP]T)), for which the concentration for a half-maximal effect (EC50) amounted to 546 ± 241 nM.
